From patent US20200309767A1, “HIGH-THROUGHPUT IMAGING-BASED METHODS FOR PREDICTING CELL-TYPE-SPECIFIC TOXICITY OF XENOBIOTICS WITH DIVERSE CHEMICAL STRUCTURES” (priority 2015, published 2020)
“Also recorded” adds a separate entry of the source. Structures can show the parent of a compound that is named as a salt. Where two headings read alike, the source gives them in different places.

Assays:
lung = settings: cited from earlier work
HK-2 cells = settings: previously observed (Wu et al.); cited from earlier work
liver = settings: in vivo; cited from earlier work
human kidney = settings: cited from earlier work
[1] = test system: human proximal tubular cells (PTCs); settings: cited from earlier work
[2] = test system: histone H2AX phosphorylated on serine 139 (γH2AX); format: cell-based, human
primary PTCs = settings: 1000 μg/mL
[3] = known human kidney toxicity flag 1/0
[4] = known in vivo group, Toxic / Non-toxic

## CC(=O)N1CCN(c2ccc(OCC3COC(Cn4ccnc4)(c4ccc(Cl)cc4Cl)O3)cc2)CC1 (stereo not shown) [Ketoconazole]
lung; human, in vivo
  Pulmonotoxic: 0

## Gentamicin
HK-2 cells
  apoptotic responses: lack of apoptotic responses
liver
  Hepatotoxic: 0
Human kidney; in vivo
  Nephrotoxic: 1
[1]; human, in vivo
  PTC Toxicity: Toxic
  PTC-toxic: 1

## [Cl-].[Na+] [Sodium chloride]
lung; human, in vivo
  Pulmonotoxic: 0

## CC(=O)C(C)=O [Diacetyl]
lung; human, in vivo
  Pulmonotoxic: 1

## N.N.[Cl][Pt][Cl] [Cisplatin]
[2]
  change in γH2AX levels: increasing levels

## C[C@H]1C(=O)O[C@@H]2CCN3CC=C(COC(=O)[C@](C)(O)[C@]1(C)O)[C@H]23 [Monocrotaline]
lung; human, in vivo
  Pulmonotoxic: 0

## CN[C@H](CC(C)C)C(=O)N[C@H]1C(=O)N[C@@H](CC(N)=O)C(=O)N[C@H]2C(=O)N[C@H]3C(=O)N[C@H](C(=O)N[C@H](C(=O)O)c4cc(O)cc(O)c4-c4cc3ccc4O)[C@H](O)c3ccc(c(Cl)c3)Oc3cc2cc(c3O[C@@H]2O[C@H](CO)[C@@H](O)[C@H](O)[C@H]2O[C@H]2C[C@](C)(N)[C@H](O)[C@H](C)O2)Oc2ccc(cc2Cl)[C@H]1O [Vancomycin hydrochloride]
lung; human, in vivo
  Pulmonotoxic: 0

## CN1COCN(Cc2cnc(Cl)s2)/C1=N\[N+](=O)[O-] [Thiamethoxam]
lung; human, in vivo
  Pulmonotoxic: 0

## [Cl-].[Li+] [Lithium chloride]
lung; human, in vivo
  Pulmonotoxic: 0
liver
  Hepatotoxic: 0
Human kidney; in vivo
  Nephrotoxic: 1
[1]; human, in vivo
  PTC Toxicity: Non-toxic
  PTC-toxic: 0
[2]
  change in γH2AX levels: small or no change

## CCC[C@@H]1C[C@@H](C(=O)N[C@@H]([C@H]2O[C@H](SC)[C@H](O)[C@@H](O)[C@H]2O)[C@@H](C)O)N(C)C1 [Lincomycin]
liver
  Hepatotoxic: 0
Human kidney; in vivo
  Nephrotoxic: 1
[1]; human, in vivo
  PTC Toxicity: Non-toxic
  PTC-toxic: 0
[2]
  change in γH2AX levels: small or no change

## O=C1CC[C@@]2(O)[C@H]3Cc4ccc(O)c5c4[C@@]2(CCN3CC2CC2)[C@H]1O5 [Naltrexone hydrochloride]
lung; human, in vivo
  Pulmonotoxic: 0

## CN(CCCC(=O)c1cccnc1)N=O [NNK]
lung; known toxicity flag 1/0
  Pulmonotoxic: 1

## NC(=O)c1ncn([C@@H]2O[C@H](CO)[C@@H](O)[C@H]2O)n1 [Ribavirin]
liver
  Hepatotoxic: 0
Human kidney; in vivo
  Nephrotoxic: 0
[1]; human, in vivo
  PTC Toxicity: Non-toxic
  PTC-toxic: 0
[2]
  change in γH2AX levels: small or no change

## O=P1(N(CCCl)CCCl)NCCCO1 (stereo not shown) [Cyclophosphamide]
lung; known toxicity flag 1/0
  Pulmonotoxic: 1

## CN(Cc1cnc2nc(N)nc(N)c2n1)c1ccc(C(=O)N[C@@H](CCC(=O)O)C(=O)O)cc1 [Methotrexate]
lung; human, in vivo
  Pulmonotoxic: 1

## OCCOCCOCCO [Triethylene glycol]
lung; human, in vivo
  Pulmonotoxic: 0

## OCCO [Ethylene glycol]
lung; human, in vivo
  Pulmonotoxic: 0
liver
  Hepatotoxic: 0
Human kidney; in vivo
  Nephrotoxic: 1
[1]; human, in vivo
  PTC Toxicity: Non-toxic
  PTC-toxic: 0

## [Cd+2].[Cl-].[Cl-] [Cadmium(II) chloride]
lung; known toxicity flag 1/0
  Pulmonotoxic: 1
liver
  Hepatotoxic: 1
Human kidney; [3]
  Nephrotoxic: 1
[1]; [4]
  PTC Toxicity: Toxic
[1]; known toxicity flag 1/0
  PTC-toxic: 1

## Bleomycin sulfate
lung; human, in vivo
  Pulmonotoxic: 1

## O=c1[nH]cc(F)c(=O)[nH]1 [5-Fluorouracil]
HK-2 cells
  apoptotic responses: lack of apoptotic responses
liver
  Hepatotoxic: 1
Human kidney; in vivo
  Nephrotoxic: 1
[1]; human, in vivo
  PTC Toxicity: Toxic
  PTC-toxic: 1

## CCC[C@@H]1C[C@@H](C(=O)N[C@@H]([C@H]2O[C@H](SC)[C@H](O)[C@@H](O)[C@H]2O)[C@@H](C)O)N(C)C1 [Lincomycin hydrochloride]
lung; human, in vivo
  Pulmonotoxic: 0

## C=CC(=C)CCC=C(C)C [β-Myrcene]
lung; human, in vivo
  Pulmonotoxic: 0

## [Ge+4].[O-2].[O-2] [Germanium(IV) oxide]
liver
  Hepatotoxic: 0
Human kidney; [3]
  Nephrotoxic: 1
[1]; [4]
  PTC Toxicity: Toxic
[1]; known toxicity flag 1/0
  PTC-toxic: 1

## C[C@@H]1[C@H](O)[C@@H](C)/C=C/C=C/CC/C=C/C=C/C=C/C=C/C(O[C@H]2O[C@H](C)[C@@H](O)[C@H](N)[C@@H]2O)CC2O[C@](O)(CC(O)C(O)CCC(O)CC(O)CC(O)CC(=O)O[C@H]1C)CC(O)C2C(=O)O (stereo partly shown) [Nystatin]
lung; human, in vivo
  Pulmonotoxic: 0

## O=[As]O[As]=O (stereo not shown) [Arsenic(III) oxide]
liver
  Hepatotoxic: 1
Human kidney; [3]
  Nephrotoxic: 1
[1]; [4]
  PTC Toxicity: Toxic
[1]; known toxicity flag 1/0
  PTC-toxic: 1

## Cc1cc(C(C)(C)C)c(O)c(C(C)(C)C)c1 [Butylated hydroxytoluene]
lung; human, in vivo
  Pulmonotoxic: 0

## OC[C@@H](O)[C@@H](O)[C@H](O)[C@@H](O)CO [D-sorbitol]
lung; human, in vivo
  Pulmonotoxic: 0

## CC(O)CCC(=O)c1ccoc1 (stereo not shown) [4-Ipomeanol]
lung; known toxicity flag 1/0
  Pulmonotoxic: 0

## Hydroxypropyl-β-cyclodextrin
lung; human, in vivo
  Pulmonotoxic: 0

## Nc1ccc(N)cc1 [p-Phenylenediamine]
lung; human, in vivo
  Pulmonotoxic: 1

## NC(=O)N1c2ccccc2C=Cc2ccccc21 [Carbamazepine]
lung; human, in vivo
  Pulmonotoxic: 1

## C[n+]1ccc(-c2cc[n+](C)cc2)cc1 [Paraquat]
lung; human, in vivo
  Pulmonotoxic: 1
liver
  Hepatotoxic: 1
Human kidney; in vivo
  Nephrotoxic: 1
[1]; human, in vivo
  PTC Toxicity: Toxic
  PTC-toxic: 1

## C[C@H](Cn1cnc2c(N)ncnc21)OCP(=O)(O)O [Tenofovir]
lung; human, in vivo
  Pulmonotoxic: 0
liver
  Hepatotoxic: 0
Human kidney; in vivo
  Nephrotoxic: 1
[1]; human, in vivo
  PTC Toxicity: Toxic
  PTC-toxic: 1

## COc1cccc2c1cc([N+](=O)[O-])c1c(C(=O)O)cc3c(c12)OCO3 [Aristolochic acid]
liver
  Hepatotoxic: 1
Human kidney; [3]
  Nephrotoxic: 1
[1]; [4]
  PTC Toxicity: Toxic
[1]; known toxicity flag 1/0
  PTC-toxic: 1

## C=C(Cl)Cl [Vinylidene chloride]
lung; human, in vivo
  Pulmonotoxic: 0

## O=C1CN(/N=C/c2ccc([N+](=O)[O-])o2)C(=O)N1 [Nitrofurantoin]
lung; human, in vivo
  Pulmonotoxic: 1

## C[C@@H]1Cc2c(Cl)cc(C(=O)N[C@@H](Cc3ccccc3)C(=O)O)c(O)c2C(=O)O1 [Ochratoxin A]
Primary PTCs; 16 hours
  cells with increased annexin-V levels: ~25%
Primary PTCs; within the measured period (16 hours)
  increase in cell death rates: very small or no increase
liver
  Hepatotoxic: 0
Human kidney; [3]
  Nephrotoxic: 1
[1]; [4]
  PTC Toxicity: Toxic
[1]; known toxicity flag 1/0
  PTC-toxic: 1
[2]; HPTC-B results
  change in γH2AX levels: increasing levels; also recorded: large increase

## CC(=O)Nc1ccc(O)cc1 [Acetaminophen]
liver
  Hepatotoxic: 1
Human kidney; in vivo
  Nephrotoxic: 1
[1]; human, in vivo
  PTC Toxicity: Non-toxic
  PTC-toxic: 0

## Cc1ccnc2c1NC(=O)c1cccnc1N2C1CC1 [Nevirapine]
lung; human, in vivo
  Pulmonotoxic: 0

## CCCCc1oc2ccccc2c1C(=O)c1cc(I)c(OCCN(CC)CC)c(I)c1.Cl [Amidoarone hydrochloride]
lung; known toxicity flag 1/0
  Pulmonotoxic: 1

## CC(O)(CS(=O)(=O)c1ccc(F)cc1)C(=O)Nc1ccc(C#N)c(C(F)(F)F)c1 (stereo not shown) [Bicalutamide]
lung; human, in vivo
  Pulmonotoxic: 0

## C=CC[C@@H]1/C=C(\C)C[C@H](C)C[C@H](OC)[C@H]2O[C@@](O)(C(=O)C(=O)N3CCCC[C@H]3C(=O)O[C@H](/C(C)=C/[C@@H]3CC[C@@H](O)[C@H](OC)C3)[C@H](C)[C@@H](O)CC1=O)[C@H](C)C[C@@H]2OC [Tacrolimus]
liver
  Hepatotoxic: 0
Human kidney; in vivo
  Nephrotoxic: 1
[1]; human, in vivo
  PTC Toxicity: Toxic
  PTC-toxic: 1

## CN[C@H](CC(C)C)C(=O)N[C@H]1C(=O)N[C@@H](CC(N)=O)C(=O)N[C@H]2C(=O)N[C@H]3C(=O)N[C@H](C(=O)N[C@H](C(=O)O)c4cc(O)cc(O)c4-c4cc3ccc4O)[C@H](O)c3ccc(c(Cl)c3)Oc3cc2cc(c3O[C@@H]2O[C@H](CO)[C@@H](O)[C@H](O)[C@H]2O[C@H]2C[C@](C)(N)[C@H](O)[C@H](C)O2)Oc2ccc(cc2Cl)[C@H]1O [Vancomycin]
liver
  Hepatotoxic: 1
Human kidney; in vivo
  Nephrotoxic: 1
[1]; human, in vivo
  PTC Toxicity: Non-toxic
  PTC-toxic: 0

## CO[C@H]1/C=C/O[C@@]2(C)Oc3c(C)c(O)c4c(O)c(c(/C=N/N5CCN(C)CC5)c(O)c4c3C2=O)NC(=O)/C(C)=C\C=C\[C@H](C)[C@H](O)[C@@H](C)[C@@H](O)[C@@H](C)[C@H](OC(C)=O)[C@@H]1C [Rifampicin]
liver
  Hepatotoxic: 1
Human kidney; in vivo
  Nephrotoxic: 1
[1]; human, in vivo
  PTC Toxicity: Toxic
  PTC-toxic: 1

## CC(C)[C@H](N)C(=O)OCCOCn1cnc2c(=O)[nH]c(N)nc21 [Valacyclovir]
liver
  Hepatotoxic: 1
Human kidney; in vivo
  Nephrotoxic: 1
[1]; human, in vivo
  PTC Toxicity: Non-toxic
  PTC-toxic: 0
